Results taken from patent US7585839B2, “Medical uses of intercellular communication facilitating compounds” (Zealand Pharma A/S, priority 2001, dated 2009).

How the values were obtained:
[1] = system: phosphoinositol turnover in neonatal rat cardiomyocytes; settings: conference abstract, cited from earlier work
[2] = system: alkaline phosphatase (ALP) activity of human osteoblasts; experiment: Alkaline phosphatase assay, human osteoblasts; format: cell-based
Procedure: Day 1: Cells were plated in 96-well plates at a conc. of 8000 cells/well (hOB) or 3000 cells/well (ROS) in 200 μl normal culture medium.
Day 2: Medium was changed on the cells.
Day 4: (Day 3 for ROS): Cells were washed with 200 μl MEM, 0.1% BSA (Sigma, Cat.No. A-9418).
Day 8: (Day 5 for ROS): Alkaline Phosphatase (ALP) assay is a colorimetric endpoint method for measuring enzyme activity, and was done using Alkaline Phosphatase Kit (Sigma, Cat.No. 104-LL): Cells were washed once with 200 μl PBS+Ca,Mg. 100μl Alkaline Buffer Solution was added to each well and plate was placed at 37° C. for 10 min. 100 μl Substrate Solution was added to each well and plate was incubated at 37° C. for 30 min. 100 μl 2.0 N NaOH was added to each well to stop the reaction. Absorbance was measured using a plate reader at 405 nm.

[3] = system: human osteoblastic cells; experiment: DDT-induced uncoupling in human osteoblast cells, Lucifer Yellow microinjection; format: cell-based; settings: after DDT 13 μM 60 minutes; 10^−8 mol/l, 10 minutes; p<0.01
Procedure: Human osteoblast cells: Cells were isolated from human bone marrow obtained by puncture of the posterior iliac spine of healthy volunteers (aged 20-36): 10-15 ml marrow material was collected in 15 ml PBS+Ca, Mg (Life Technologies, Cat.No. 14040) with 100 U/ml Heparin (Sigma, Cat.No. H-3149). The mononuclear fraction of the marrow was isolated on a Lymphoprep gradient (Nycomed Pharma, Cat.No. 1001967), by centrifugation at 2200 rpm for 30 min. After harvesting, the mononuclear fraction was washed once with culture medium and centrifuged at 1800 rpm for 10 min. Subsequently cells were counted and plated in culture medium at 8×10^6 cells/100 mm dish. hOB medium (all reagents obtained from Life Technologies): MEM w/o Phenol Red w/Glutamax (Cat.No. 041-93013) supplemented with 10% heat inactivated fetal calf serum (Cat.No. 10106) and 0.1% Penicillin/Streptomycin (Cat.No. 15140). Medium was changed the following day and the cells were cultured at 37° C. in 5%CO2 with medium change every 7 days. After 3-4 weeks of culture the cells had reached 70% confluence. The medium was then supplemented with 100 nM Dexamethasone (Sigma, Cat.No. D-4902) for 7 days. Cells were then plated for video imaging experiments: a 25 mm #1 glass coverslip was placed in a 35 mm dish (or each well of a 6-well multidish), cells were plated at 2.5×10^5 cells/coverslip and cultured for 2-3 days before use. […]

[4] = system: phosphoinositol turnover in neonatal rat cardiomyocytes; experiment: Phosphoinositol turnover in primary cardiomyocyte cultures; format: cell-based; settings: 100 nM + noradrenaline 300 nM
Procedure: Neonatal Wistar rats (1-2 days old) are used. Hank's calcium- and magnesium-free balanced salt solution, buffered with 10 mM HEPES is used for washing during cell separation procedures. The hearts are excised, the ventricles isolated and the tissue cut into small pieces. The myocardial cells are isolated by stepwise enzymatic degradation with collagenase 0.05%, as described by ^[35]. After repeated rounds of centrifugation and washing, the precipitated cells are resuspended in culture medium M199 with Earle's salt, 10% NCS, penicillin (75 U/mL), and streptomycin (75 U/mL) and pre-plated in a Petri dish for 90 minutes. The non-adherent cells are collected in the culture medium and plated in multidishes at 2.5*10^5 cells/well. The cultures are kept in a water-saturated CO2-incubator at 37° C. The cardiomyocyte cultures are used for analyses after 6-7 days.
Cardiomyocyte cultures are incubated for 48 hours in culture medium containing 4 μCi/mL myo-[2-^3H]inositol to label the inositol phospholipids. On the day of analysis the medium is replaced by a buffer solution containing lithium and incubated at 37° C., as described by Meier et al.^[36]. After at least five minutes this buffer is replaced by the same volume of buffer containing test compound and incubated for exactly 20 minutes. The reaction is stopped by rapid replacement of the buffer by ice cold 4% v/v perchloric acid (PCA) and incubation for at least 20 minutes at 0° C. The PCA-extract is neutralised and the [^3H]inositol phosphates are separated by anion-exchange chromatography using Amprep™ columns containing 100 mg SAX Quaternary amine. The [^3H]inositol mono-phosphates are eluted and radioactivity in the fraction measured by liquid scintillation counting.
Before adding test substances to the cultures, the cells are depleted of glucose and oxygen by incubating them in a N2-atmosphere in glucose-free lithium-buffer for 10 minutes at 37° C. Control cells are incubated likewise only at normal atmospheric conditions and in a buffer containing glucose.

Ac-D-Tyr-D-Pro-D-4Hyp-Gly-D-Ala-Gly-NH2 [Compound 2]
noradrenalin-induced level of PI turnover ([1]; normal athmospheric and nutritional conditions): do not alter
noradrenalin-induced PI turnover, % of the normal level ([1]; oxygen and glucose deprivation): ~90%
stimulation of ALP activity during hypoxia, greater than during normoxia ([2]; 5% O2 four days, 10^−11 to 10^−8 mol/l): about 15%
ALP activity ([2]; normal culture conditions, 1×10^−13 to 1×10^−6): increased ALP activity at most of the concentrations tested
cell-to-cell dye transfer, median number of cells [3]: 8.3 cells
increase in phospho-inositol turnover above the increase effected by noradrenaline alone ([4]; anoxia and glucose deprivation): about 70%
effect on noradrenaline induced increase in phospho-inositol turnover ([4]; control conditions): no further effect
